Laboratory results taken from patent US20250367308A1, “LIGAND-DRUG CONJUGATE OF CAMPTOTHECIN ANALOGS, INTERMEDIATES, PREPARATION METHOD THEREFOR, PHARMACEUTICAL COMPOSITION AND APPLICATION THEREOF” (SHANGHAI MICURX PHARMACEUTICAL CO.,LTD., priority 2022, published 2025).
Read-outs that look alike come from different tables or passages of the source.

System: Human lung adenocarcinoma cell line A549
Experiment: In vitro cytotoxicity test of camptothecin payloads (CellTiter-Glo)
Assay type: cell-based
Details: for IC50: Homo sapiens, A549, 72 h, read-out: A549 Cytotoxicity IC50 (nM)
Procedure: Human lung adenocarcinoma cell line A549 was used to evaluate the cytotoxicity of small molecule fragment of the present invention. A549 cells were seeded to a 96-well plate at 2000 cells per well.

Structure (SMILES)	IC50 [nM]	relative A549 cytotoxic potency in words	relative A549 cytotoxic potency in words (human, 3 days)
CC[C@@]1(O)C(=O)OCc2c1cc1n(c2=O)Cc2c-1nc1cc(F)c(C)cc1c2CN1CCC(O)C1 (stereo partly drawn) [Example 2, (4S)-4-ethyl-8-fluoro-4-hydroxy-11-((3-hydroxypyrrolidin-1-yl)methyl)-9-methyl-1H-pyrano[3′,4′:6,7] indolizino[1,2-b]quinoline-3,14(4H,12H)-dione]	138	–	–
CC[C@@]1(O)C(=O)OCc2c1cc1n(c2=O)Cc2c-1nc1cc(F)c(C)cc1c2CN1CCCC1(C)CO (stereo partly drawn) [Example 21, (4S)-4-ethyl-8-fluoro-4-hydroxy-11-((2-(hydroxymethyl)-2-methylpyrrolidin-1-yl)methyl)-9-methyl-1H-pyrano[3′,4′:6,7] indolizino[1,2-b]quinoline-3,14(4H,12H)-dione]	55	–	–
CC[C@@]1(O)C(=O)OCc2c1cc1n(c2=O)Cc2c-1nc1cc(F)c(C)cc1c2CN1CCC(CCO)CC1 [Example 27, (S)-4-ethyl-8-fluoro-4-hydroxy-11-((4-(2-hydroxyethyl)piperidin-1-yl)methyl)-9-methyl-1H-pyrano[3′,4′:6,7] indolizino[1,2-b]quinoline-3,14(4H,12H)-dione]	16.8	–	–
CC[C@@]1(O)C(=O)OCc2c1cc1n(c2=O)Cc2c-1nc1cc(F)c(C)cc1c2CN1CCC(O)CC1 [Example 16, (S)-4-ethyl-8-fluoro-4-hydroxy-11-((4-hydroxypiperidin-1-yl)methyl)-9-methyl-1H-pyrano[3′,4′:6,7] indolizino[1,2-b]quinoline-3,14(4H,12H)-dione]	81	–	–
CC[C@@]1(O)C(=O)OCc2c1cc1n(c2=O)Cc2c-1nc1cc(F)c(C)cc1c2CN1CCC(C(C)O)CC1 (stereo partly drawn) [Example 13, (4S)-4-ethyl-8-fluoro-4-hydroxy-11-((4-(1-hydroxyethyl)piperidin-1-yl)methyl)-9-methyl-1H-pyrano[3′,4′:6,7] indolizino[1,2-b]quinoline-3,14(4H,12H)-dione]	33	–	–
CC[C@@]1(O)C(=O)OCc2c1cc1n(c2=O)Cc2c-1nc1cc(F)c(C)cc1c2CN1CCC(C(O)C(C)C)CC1 (stereo partly drawn) [Example 28, (4S)-4-ethyl-8-fluoro-4-hydroxy-11-((4-(1-hydroxy-2-methylpropyl)piperidin-1-yl)methyl)-9-methyl-1H-pyrano[3′,4′:6,7] indolizino[1,2-b]quinoline-3,14(4H,12H)-dione]	74.2	–	–
CC[C@@]1(O)C(=O)OCc2c1cc1n(c2=O)Cc2c-1nc1cc(F)c(F)cc1c2CN1CCC([C@@H](C)O)CC1 [Example 37, (S)-4-ethyl-8,9-difluoro-4-hydroxy-11-((4-((R)-1-hydroxyethyl)piperidin-1-yl)methyl)-1,12-dihydro-14H-pyrano[3′,4′:6,7] indolizino[1,2-b]quinoline-3,14(4H)-dione]	29	–	–
CC[C@@]1(O)C(=O)OCc2c1cc1n(c2=O)Cc2c-1nc1cc3c(cc1c2CN1CCC2(CC1)CC(O)C2)OCCO3 [Example 44]	30	–	–
CC[C@@]1(O)C(=O)OCc2c1cc1n(c2=O)Cc2c-1nc1cc(F)c(C)cc1c2CN1CCC2(CCC2O)CC1 (stereo partly drawn) [Example 32, (4S)-4-ethyl-8-fluoro-4-hydroxy-11-((1-hydroxy-7-azaspiro[3.5]nonan-7-yl)methyl)-9-methyl-1H-pyrano[3′,4′:6,7] indolizino[1,2-b]quinoline-3,14(4H,12H)-dione]	12.6	–	–
CC[C@@]1(O)C(=O)OCc2c1cc1n(c2=O)Cc2c-1nc1cc(F)c(C)c3c1c2[C@@H](NC(=O)CO)CC3 [Dxd, reference compound]	78	–	–
CC[C@@]1(O)C(=O)OCc2c1cc1n(c2=O)Cc2c-1nc1cc(F)c(C)cc1c2CN1CCC([C@@H](C)O)CC1 [Example 15, (S)-4-ethyl-8-fluoro-4-hydroxy-11-((4-((R)-1-hydroxyethyl)piperidin-1-yl)methyl)-9-methyl-1H-pyrano[3′,4′:6,7] indolizino[1,2-b]quinoline-3,14(4H,12H)-dione]	17.6	–	–
CC[C@@]1(O)C(=O)OCc2c1cc1n(c2=O)Cc2c-1nc1cc(F)c(C)cc1c2CN1C[C@H]2C[C@@H](C1)C2O (stereo partly drawn) [Example 47, (4S)-4-ethyl-8-fluoro-4-hydroxy-11-(((1R,5S)-6-hydroxy-3-azabicyclo[3.1.1]heptan-3-yl)methyl)-9-methyl-1,12-dihydro-14H-pyrano[3',4':6,7] indolizino[1,2-b]quinoline-3,14(4H)-dione]	28	–	–
CC[C@@]1(O)C(=O)OCc2c1cc1n(c2=O)Cc2c-1nc1cc(F)c(C)cc1c2CN1CC(O)C1 [Example 9, (S)-4-ethyl-8-fluoro-4-hydroxy-11-((3-hydroxyazetidin-1-yl)methyl)-9-methyl-1H-pyrano[3′,4′:6,7] indolizino[1,2-b]quinoline-3,14(4H,12H)-dione]	550	–	–
CC[C@@]1(O)C(=O)OCc2c1cc1n(c2=O)Cc2c-1nc1cc(F)c(C)cc1c2CN1CCC(C2(O)CCC2)CC1 [Example 30, (S)-4-ethyl-8-fluoro-4-hydroxy-11-((4-(1-hydroxycyclobutyl)piperidin-1-yl)methyl)-9-methyl-1H-pyrano[3′,4′:6,7] indolizino[1,2-b]quinoline-3,14(4H,12H)-dione]	28.6	–	–
CC[C@@]1(O)C(=O)OCc2c1cc1n(c2=O)Cc2c-1nc1cc(F)c(C)cc1c2CN1CCC(C)(CO)C1 (stereo partly drawn) [Example 24, (4S)-4-ethyl-8-fluoro-4-hydroxy-11-((3-(hydroxymethyl)-3-methylpyrrolidin-1-yl)methyl)-9-methyl-1H-pyrano[3′,4′:6,7] indolizino[1,2-b]quinoline-3,14(4H,12H)-dione]	43	–	–
CC[C@@]1(O)C(=O)OCc2c1cc1n(c2=O)Cc2c-1nc1cc(F)c(C)cc1c2C(C)N1CCC([C@@H](C)O)CC1 (stereo partly drawn) [Example 39, (4S)-4-ethyl-8-fluoro-4-hydroxy-11-(1-(4-((R)-1-hydroxyethyl)piperidin-1-yl)ethyl)-9-methyl-1,12-dihydro-14H-pyrano[3′,4′:6,7] indolizino[1,2-b]quinoline-3,14(4H)-dione]	128	–	–
CC[C@@]1(O)C(=O)OCc2c1cc1n(c2=O)Cc2c-1nc1cc(F)c(C)cc1c2CN1CC(C)(C)C[C@@H]1CO [Example 22, (S)-4-ethyl-8-fluoro-4-hydroxy-11-(((R)-2-(hydroxymethyl)-4,4-dimethylpyrrolidin-1-yl)methyl)-9-methyl-1H-pyrano[3′,4′:6,7] indolizino[1,2-b]quinoline-3,14(4H,12H)-dione]	14.3	–	–
CC[C@@]1(O)C(=O)OCc2c1cc1n(c2=O)Cc2c-1nc1cc(F)c(C)cc1c2CN1CCCC(O)C1 (stereo partly drawn) [Example 17, (4S)-4-ethyl-8-fluoro-4-hydroxy-11-((3-hydroxypiperidin-1-yl)methyl)-9-methyl-1H-pyrano[3′,4′:6,7] indolizino[1,2-b]quinoline-3,14(4H,12H)-dione]	38	most potent compound	–
CC[C@@]1(O)C(=O)OCc2c1cc1n(c2=O)Cc2c-1nc1cc(F)c(C)cc1c2CN1C2CCC1(CO)CC2 [Example 20, (S)-4-ethyl-8-fluoro-4-hydroxy-11-((1-(hydroxymethyl)-7-azabicyclo[2.2.1]heptan-7-yl)methyl)-9-methyl-1H-pyrano[3′,4′:6,7] indolizino[1,2-b]quinoline-3,14(4H,12H)-dione]	24.1	–	–
CC[C@@]1(O)C(=O)OCc2c1cc1n(c2=O)Cc2c-1nc1ccc(OCC(=O)N3CCCCC3)cc1c2CN1CCC([C@@H](C)O)CC1 [Example 40, (S)-4-ethyl-4-hydroxy-11-((4-((R)-1-hydroxyethyl)piperidin-1-yl)methyl)-9-(2-oxo-2-(piperidin-1-yl)ethoxy)-1,12-dihydro-14H-pyrano[3′,4′:6,7] indolizino[1,2-b]quinoline-3,14(4H)-dione]	1290	–	–
CC[C@@]1(O)C(=O)OCc2c1cc1n(c2=O)Cc2c-1nc1cc(F)c(C)cc1c2CN1CC2C(C1CO)C2(C)C (stereo partly drawn) [Example 23, (4S)-4-ethyl-8-fluoro-4-hydroxy-11-((2-(hydroxymethyl)-6,6-dimethyl-3-azabicyclo[3.1.0]hexan-3-yl)methyl)-9-methyl-1H-pyrano[3′,4′:6,7] indolizino[1,2-b]quinoline-3,14(4H,12H)-dione]	49	–	–
CC[C@@]1(O)C(=O)OCc2c1cc1n(c2=O)Cc2c-1nc1cc(F)c(C)cc1c2CN1CCC[C@H](O)C1 [Example 19, (S)-4-ethyl-8-fluoro-4-hydroxy-11-(((S)-3-hydroxypiperidin-1-yl)methyl)-9-methyl-1H-pyrano[3′,4′:6,7] indolizino[1,2-b]quinoline-3,14(4H,12H)-dione]	15.7	–	more potent than Example 17
CC[C@@]1(O)C(=O)OCc2c1cc1n(c2=O)Cc2c-1nc1cc(F)c(C)cc1c2CN1CCCCC1CO (stereo partly drawn) [Example 11, (4S)-4-ethyl-8-fluoro-4-hydroxy-11-((2-(hydroxymethyl)piperidin-1-yl)methyl)-9-methyl-1H-pyrano[3′,4′:6,7] indolizino[1,2-b]quinoline-3,14(4H,12H)-dione]	60	–	less potent than Example 17
CC[C@@]1(O)C(=O)OCc2c1cc1n(c2=O)Cc2c-1nc1cc(F)c(C)cc1c2CN1CCC(CO)C1 (stereo partly drawn) [Example 8, (4S)-4-ethyl-8-fluoro-4-hydroxy-11-((3-(hydroxymethyl)pyrrolidin-1-yl)methyl)-9-methyl-1H-pyrano[3′,4′:6,7] indolizino[1,2-b]quinoline-3,14(4H,12H)-dione]	82	–	–
CC[C@@]1(O)C(=O)OCc2c1cc1n(c2=O)Cc2c-1nc1ccc(O)cc1c2CN1CCC([C@@H](C)O)CC1 [Example 38, (S)-4-ethyl-4,9-dihydroxy-11-((4-((R)-1-hydroxyethyl)piperidin-1-yl)methyl)-1,12-dihydro-14H-pyrano[3′,4′:6,7] indolizino[1,2-b]quinoline-3,14(4H)-dione]	1250	–	–
